Results reported in the NIST ThermoML archive (doi:10.1016/j.jct.2005.05.020).

Test: xn = mol fraction of the nth substance listed
Settings: 101 kPa, Liquid

CCCCCC [hexane] + CCCCCCC
mass density [kg/m3]
Settings | x1 = 0.1019 | x1 = 0.2003 | x1 = 0.3005 | x1 = 0.4007 | x1 = 0.5001 | x1 = 0.5984 | x1 = 0.7002 | x1 = 0.7995 | x1 = 0.8974
273.15 K | 698.37 | 696.77 | 694.27 | 692.25 | 689.57 | 687.14 | 684.81 | 682.14 | 679.66
278.15 K | 694.22 | 692.61 | 690.08 | 688.04 | 685.35 | 682.88 | 680.52 | 677.82 | 675.32
283.15 K | 690.04 | 688.42 | 685.86 | 683.8 | 681.08 | 678.58 | 676.2 | 673.47 | 670.94
288.15 K | 685.84 | 684.21 | 681.62 | 679.53 | 676.79 | 674.26 | 671.85 | 669.1 | 666.54
293.15 K | 681.62 | 679.97 | 677.36 | 675.24 | 672.47 | 669.91 | 667.47 | 664.69 | 662.1
298.15 K | 677.38 | 675.7 | 673.06 | 670.93 | 668.12 | 665.53 | 663.06 | 660.24 | 657.62
303.15 K | 673.11 | 671.42 | 668.74 | 666.58 | 663.74 | 661.12 | 658.62 | 655.77 | 653.12
308.15 K | 668.81 | 667.09 | 664.39 | 662.2 | 659.32 | 656.67 | 654.14 | 651.25 | 648.57
313.15 K | 664.47 | 662.74 | 660 | 657.78 | 654.86 | 652.19 | 649.62 | 646.69 | 643.98
318.15 K | 660.11 | 658.36 | 655.58 | 653.33 | 650.35 | 647.66 | 645.06 | 642.1 | 639.34
323.15 K | 655.71 | 653.93 | 651.12 | 648.84 | 645.81 | 643.1 | 640.45 | 637.45 | 634.65
328.15 K | 651.27 | 649.47 | 646.62 | 644.31 | 641.22 | 638.48 | 635.8 | 632.76 | 629.92
333.15 K | 646.79 | 644.97 | 642.07 | 639.73 | 636.58 | 633.82 | 631.24 | 628.01 | 625.13
338.15 K | 642.28 | 640.43 | 637.49 | 635.11 | 631.89 | – | 626.48 | 623.2 | 620.28
343.15 K | 637.71 | 635.84 | 632.85 | 630.44 | 627.14 | – | 621.67 | – | –
348.15 K | 633.1 | 631.2 | 628.16 | 625.71 | 622.33 | – | 616.8 | – | –
353.15 K | 628.43 | 626.5 | 623.42 | 620.92 | – | – | – | – | –
358.15 K | 623.71 | 621.75 | 618.61 | 616.08 | – | – | – | – | –
363.15 K | 618.94 | 616.94 | 613.75 | 611.16 | – | – | – | – | –

CCCCC [pentane] + CCCCCC
Settings | mass density [kg/m3]
273.15 K, x1 = 0.0999 | 674.29
273.15 K, x1 = 0.1996 | 671.84
273.15 K, x1 = 0.2998 | 668.66
273.15 K, x1 = 0.3884 | 666.23
273.15 K, x1 = 0.5 | 662.72
273.15 K, x1 = 0.6 | 659.97
273.15 K, x1 = 0.7001 | 657
273.15 K, x1 = 0.8995 | 650.09
273.16 K, x1 = 0.8011 | 653.2
278.15 K, x1 = 0.0999 | 669.9
278.15 K, x1 = 0.1996 | 667.39
278.15 K, x1 = 0.2998 | 664.21
278.15 K, x1 = 0.3884 | 661.71
278.15 K, x1 = 0.5 | 658.2
278.15 K, x1 = 0.6 | 655.38
278.15 K, x1 = 0.7001 | 652.36
278.15 K, x1 = 0.8011 | 648.53
278.15 K, x1 = 0.8995 | 645.39
283.14 K, x1 = 0.3884 | 657.16
283.14 K, x1 = 0.6 | 650.74
283.14 K, x1 = 0.7001 | 647.7
283.14 K, x1 = 0.8011 | 643.81
283.14 K, x1 = 0.8995 | 640.63
283.15 K, x1 = 0.0999 | 665.46
283.15 K, x1 = 0.1996 | 662.9
283.15 K, x1 = 0.2998 | 659.71
283.15 K, x1 = 0.5 | 653.63
288.14 K, x1 = 0.1996 | 658.38
288.14 K, x1 = 0.3884 | 652.56
288.14 K, x1 = 0.6 | 646.06
288.14 K, x1 = 0.7001 | 642.98
288.14 K, x1 = 0.8995 | 635.83
288.15 K, x1 = 0.0999 | 661
288.15 K, x1 = 0.2998 | 655.18
288.15 K, x1 = 0.5 | 649.01
288.15 K, x1 = 0.8011 | 639.05
293.14 K, x1 = 0.6 | 641.34
293.14 K, x1 = 0.7001 | 638.21
293.15 K, x1 = 0.0999 | 656.49
293.15 K, x1 = 0.1996 | 653.82
293.15 K, x1 = 0.2998 | 650.6
293.15 K, x1 = 0.3884 | 647.93
293.15 K, x1 = 0.5 | 644.36
293.15 K, x1 = 0.8011 | 634.24
293.15 K, x1 = 0.8995 | 630.97
298.14 K, x1 = 0.1996 | 649.22
298.14 K, x1 = 0.3884 | 643.25
298.14 K, x1 = 0.6 | 636.57
298.14 K, x1 = 0.7001 | 633.51
298.14 K, x1 = 0.8995 | 626.07
298.15 K, x1 = 0.0999 | 651.95
298.15 K, x1 = 0.2998 | 645.98
298.15 K, x1 = 0.5 | 639.66
298.15 K, x1 = 0.8011 | 629.38
303.14 K, x1 = 0.1996 | 644.58
303.14 K, x1 = 0.3884 | 638.53
303.14 K, x1 = 0.6 | 631.74
303.14 K, x1 = 0.7001 | 628.65
303.14 K, x1 = 0.8011 | 624.47
303.15 K, x1 = 0.0999 | 647.36
303.15 K, x1 = 0.2998 | 641.31
303.15 K, x1 = 0.5 | 634.91
303.15 K, x1 = 0.8995 | 621.11
308.14 K, x1 = 0.7001 | 623.75
308.15 K, x1 = 0.0999 | 642.74
308.15 K, x1 = 0.1996 | 639.9
308.15 K, x1 = 0.2998 | 636.59
308.15 K, x1 = 0.3884 | 633.76
308.15 K, x1 = 0.5 | 630.1
308.15 K, x1 = 0.6 | 626.86
308.15 K, x1 = 0.8011 | 619.5
308.15 K, x1 = 0.8995 | 616.08
313.14 K, x1 = 0.6 | 621.92
313.14 K, x1 = 0.8011 | 614.47
313.14 K, x1 = 0.8995 | 611
313.15 K, x1 = 0.0999 | 638.06
313.15 K, x1 = 0.1996 | 635.17
313.15 K, x1 = 0.2998 | 631.82
313.15 K, x1 = 0.3884 | 628.94
313.15 K, x1 = 0.5 | 625.24
313.15 K, x1 = 0.7001 | 618.75
318.14 K, x1 = 0.3884 | 624.06
318.14 K, x1 = 0.6 | 616.92
318.14 K, x1 = 0.7001 | 613.89
318.14 K, x1 = 0.8995 | 605.86
318.15 K, x1 = 0.0999 | 633.32
318.15 K, x1 = 0.1996 | 630.38
318.15 K, x1 = 0.5 | 620.41
318.15 K, x1 = 0.8011 | 609.38
323.14 K, x1 = 0.1996 | 625.55
323.14 K, x1 = 0.5 | 615.41
323.14 K, x1 = 0.8995 | 600.65
323.15 K, x1 = 0.0999 | 628.53
323.15 K, x1 = 0.6 | 611.84
328.14 K, x1 = 0.1996 | 620.65
328.15 K, x1 = 0.0999 | 623.68
328.15 K, x1 = 0.5 | 610.35
328.15 K, x1 = 0.6 | 606.69
333.15 K, x1 = 0.0999 | 618.77
333.15 K, x1 = 0.1996 | 615.6

CCCCC [pentane] + CCCCCCC
mass density [kg/m3]
Settings | x1 = 0.1014 | x1 = 0.2019 | x1 = 0.3011 | x1 = 0.4001 | x1 = 0.4997 | x1 = 0.5999 | x1 = 0.698 | x1 = 0.7991 | x1 = 0.8992
273.14 K | – | 691.57 | – | – | – | – | – | – | –
273.15 K | 696.24 | – | 686.91 | 682.43 | 677.18 | 671.16 | 665.42 | 659.05 | 652.37
278.15 K | 692.07 | 687.35 | 682.65 | 678.13 | 672.82 | 666.73 | 660.92 | 654.47 | 647.72
283.15 K | 687.87 | 683.1 | 678.35 | 673.78 | 668.42 | 662.25 | 656.37 | 649.85 | 643.01
288.15 K | 683.65 | 678.83 | 674.03 | 669.41 | 663.99 | 657.74 | 651.79 | 645.18 | 638.26
293.15 K | 679.4 | 674.53 | 669.67 | 665.01 | 659.51 | 653.19 | 647.17 | 640.48 | 633.46
298.15 K | 675.12 | 670.21 | 665.29 | 660.56 | 655.01 | 648.6 | 642.5 | 635.73 | 628.61
303.15 K | 670.82 | 665.85 | 660.88 | 656.08 | 650.46 | 643.97 | 637.79 | 630.93 | 623.7
308.15 K | 666.49 | 661.46 | 656.43 | 651.57 | 645.86 | 639.3 | 633.03 | 626.07 | –
313.15 K | 662.08 | 657.04 | 651.94 | 647 | 641.22 | 634.58 | 628.22 | 621.16 | –
318.15 K | 657.69 | 652.58 | 647.42 | 642.39 | 636.53 | – | 623.36 | 616.18 | –
323.15 K | 653.26 | 648.09 | 642.84 | 637.74 | 631.79 | – | 618.43 | 611.14 | –
328.15 K | 648.78 | 643.55 | 638.23 | 633.03 | 626.99 | – | – | – | –
333.15 K | 644.24 | – | 633.57 | 628.26 | 622.13 | – | – | – | –
338.15 K | 639.67 | – | – | 623.48 | 617.2 | – | – | – | –
343.15 K | 635.01 | – | – | 618.87 | – | – | – | – | –
